The source of these data is ChEMBL document CHEMBL1201862, “PubChem BioAssay data set” (2004).

Molecules are shown by their SMILES. Calls of active or inactive are those of the source.

In experiment [1] the target is T1, Carboxy-terminal domain RNA polymerase II polypeptide A small phosphatase 1 (Homo sapiens, UniProt Q9GZU7).
T1 sequence (Q9GZU7 whole entry): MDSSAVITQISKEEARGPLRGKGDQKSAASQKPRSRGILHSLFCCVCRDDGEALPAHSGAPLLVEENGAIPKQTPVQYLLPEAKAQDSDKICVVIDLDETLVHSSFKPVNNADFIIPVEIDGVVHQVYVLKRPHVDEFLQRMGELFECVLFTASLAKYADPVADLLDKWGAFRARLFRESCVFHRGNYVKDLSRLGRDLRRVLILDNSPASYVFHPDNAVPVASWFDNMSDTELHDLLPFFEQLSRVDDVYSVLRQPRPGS
Kind of experiment: inhibitors of CTDSP1, concentration-response testing, biochemical assay, absorbance-based, actives from ultra-high-throughput screening (AID 540297). Format: functional.

Experiment [2] addresses DNA dC->dU-editing enzyme APOBEC-3A (Homo sapiens, UniProt P31941). Kind of experiment: Dose Response confirmation of small molecule APOBEC3A DNA Deaminase Inhibitors via a fluorescence-based single-stranded DNA deaminase assay. [Related pubchem assays (depositor defined):AID493011, AID493024]. Format: functional.
Experiment [3] has as its target DNA dC->dU-editing enzyme APOBEC-3G (Homo sapiens, UniProt Q9HC16). The experiment is classed as functional.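 Further: Dose-response counterscreen measuring inhibition of APOBEC3G DNA deaminase activity, run while confirming APOBEC3A inhibitors.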
Experiment [4] concerns Vero. The experiment is described as follows: cells. Format: functional, cell-based. As to conditions: Chlorocebus sabaeus.
Experiment [5] concerns Vero. Kind of experiment: cells. Format: functional. The note with it: Chlorocebus sabaeus.
Experiment [6] has as its system BJ. The experiment is described as follows: cytotoxicity toward Ras-transformed BJeLR fibroblasts, dose response, cell-based, alamar blue fluorescence, cherrypicked samples (AID 2631).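 Further: confirmatory dose-response assay in RAS-dependent BJ fibroblasts engineered with TERT, LT and ST, with cytotoxicity read by fluorescence.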 The experiment is classed as functional. As to conditions: Homo sapiens. Background: The colour change of resazurin is a common sign of viable cells or microbes.
Experiment [7] has as its system BJ. Kind of experiment: cytotoxicity toward BJ-TERT fibroblasts, dose response, cell-based, RAS-independent, luminescence (AID 1933). The experiment is classed as functional. The note with it: Homo sapiens.
Experiment [8] concerns BJ. Kind of experiment: cells. The experiment is classed as functional, cell-based. As to conditions: Homo sapiens.
The nature of experiment [9]: Counterscreen for AddAB inhibitors: absorbance-based bacterial cell-based high throughput dose response assay for inhibitors of bacterial viability. [Related pubchem assays (depositor defined):AID435030, AID449728, AID449731, AID488942, AID488955, AID488956]. Format: functional. Background: A counterscreen serves to expose hits that act by an unwanted route or on another target.

Experiment [10] in a line: cells. The experiment is classed as functional, cell-based.
Experiment [11] concerns BJ. The experiment is described as follows: cytotoxicity toward BJ-TERT-LT-ST fibroblasts, dose response, cell-based, RAS-independent, luminescence (AID 1935).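 Further: BJ fibroblasts immortalized with TERT plus LT and ST oncogenes.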 The experiment is classed as functional. The note with it: Homo sapiens.
The next experiment has as its target T2, Exodeoxyribonuclease V (Escherichia coli (strain K12), UniProt P04993+P07648+P08394).
T2 sequence (P04993 whole entry): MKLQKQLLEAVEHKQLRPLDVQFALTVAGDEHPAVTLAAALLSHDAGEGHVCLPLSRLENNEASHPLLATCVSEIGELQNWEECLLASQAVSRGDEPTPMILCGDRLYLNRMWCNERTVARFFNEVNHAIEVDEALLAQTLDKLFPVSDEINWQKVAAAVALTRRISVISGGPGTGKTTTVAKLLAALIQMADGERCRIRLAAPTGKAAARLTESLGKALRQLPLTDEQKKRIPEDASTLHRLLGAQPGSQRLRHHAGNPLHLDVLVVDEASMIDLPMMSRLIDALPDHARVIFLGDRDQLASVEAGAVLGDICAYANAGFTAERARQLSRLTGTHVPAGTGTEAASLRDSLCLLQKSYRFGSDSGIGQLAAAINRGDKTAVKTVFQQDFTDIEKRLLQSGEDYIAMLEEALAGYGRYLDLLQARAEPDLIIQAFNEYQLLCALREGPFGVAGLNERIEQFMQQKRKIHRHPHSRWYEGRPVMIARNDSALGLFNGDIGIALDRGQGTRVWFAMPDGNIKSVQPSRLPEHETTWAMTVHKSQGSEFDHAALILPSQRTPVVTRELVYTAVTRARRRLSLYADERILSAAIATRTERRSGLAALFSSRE
T2 sequence (P07648 whole entry): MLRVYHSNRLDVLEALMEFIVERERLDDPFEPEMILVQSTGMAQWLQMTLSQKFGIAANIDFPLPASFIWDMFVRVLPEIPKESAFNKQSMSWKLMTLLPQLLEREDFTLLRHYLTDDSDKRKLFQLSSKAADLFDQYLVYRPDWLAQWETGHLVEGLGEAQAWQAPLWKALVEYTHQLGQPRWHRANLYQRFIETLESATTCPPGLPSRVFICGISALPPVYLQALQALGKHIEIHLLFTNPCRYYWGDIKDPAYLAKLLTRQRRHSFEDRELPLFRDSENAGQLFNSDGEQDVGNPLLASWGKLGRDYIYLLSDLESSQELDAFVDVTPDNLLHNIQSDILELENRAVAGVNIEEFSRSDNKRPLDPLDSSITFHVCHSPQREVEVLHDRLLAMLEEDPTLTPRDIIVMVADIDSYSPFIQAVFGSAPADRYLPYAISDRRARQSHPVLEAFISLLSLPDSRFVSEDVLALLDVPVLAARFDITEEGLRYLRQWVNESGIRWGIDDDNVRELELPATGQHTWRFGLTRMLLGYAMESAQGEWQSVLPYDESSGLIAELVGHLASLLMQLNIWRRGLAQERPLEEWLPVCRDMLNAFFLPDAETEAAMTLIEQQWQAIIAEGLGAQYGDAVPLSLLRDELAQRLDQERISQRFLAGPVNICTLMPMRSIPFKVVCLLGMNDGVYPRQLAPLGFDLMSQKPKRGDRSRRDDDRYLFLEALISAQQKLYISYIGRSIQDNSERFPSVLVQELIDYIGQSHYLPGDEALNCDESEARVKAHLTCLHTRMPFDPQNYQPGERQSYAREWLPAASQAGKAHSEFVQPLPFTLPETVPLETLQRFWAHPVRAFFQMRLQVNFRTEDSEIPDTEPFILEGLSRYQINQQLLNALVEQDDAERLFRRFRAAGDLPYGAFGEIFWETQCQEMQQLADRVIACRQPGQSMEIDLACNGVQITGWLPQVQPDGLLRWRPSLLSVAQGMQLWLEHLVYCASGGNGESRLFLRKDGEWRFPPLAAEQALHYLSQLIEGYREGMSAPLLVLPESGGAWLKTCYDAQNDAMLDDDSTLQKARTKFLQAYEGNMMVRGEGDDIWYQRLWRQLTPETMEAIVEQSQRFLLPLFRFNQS
T2 sequence (P08394 whole entry): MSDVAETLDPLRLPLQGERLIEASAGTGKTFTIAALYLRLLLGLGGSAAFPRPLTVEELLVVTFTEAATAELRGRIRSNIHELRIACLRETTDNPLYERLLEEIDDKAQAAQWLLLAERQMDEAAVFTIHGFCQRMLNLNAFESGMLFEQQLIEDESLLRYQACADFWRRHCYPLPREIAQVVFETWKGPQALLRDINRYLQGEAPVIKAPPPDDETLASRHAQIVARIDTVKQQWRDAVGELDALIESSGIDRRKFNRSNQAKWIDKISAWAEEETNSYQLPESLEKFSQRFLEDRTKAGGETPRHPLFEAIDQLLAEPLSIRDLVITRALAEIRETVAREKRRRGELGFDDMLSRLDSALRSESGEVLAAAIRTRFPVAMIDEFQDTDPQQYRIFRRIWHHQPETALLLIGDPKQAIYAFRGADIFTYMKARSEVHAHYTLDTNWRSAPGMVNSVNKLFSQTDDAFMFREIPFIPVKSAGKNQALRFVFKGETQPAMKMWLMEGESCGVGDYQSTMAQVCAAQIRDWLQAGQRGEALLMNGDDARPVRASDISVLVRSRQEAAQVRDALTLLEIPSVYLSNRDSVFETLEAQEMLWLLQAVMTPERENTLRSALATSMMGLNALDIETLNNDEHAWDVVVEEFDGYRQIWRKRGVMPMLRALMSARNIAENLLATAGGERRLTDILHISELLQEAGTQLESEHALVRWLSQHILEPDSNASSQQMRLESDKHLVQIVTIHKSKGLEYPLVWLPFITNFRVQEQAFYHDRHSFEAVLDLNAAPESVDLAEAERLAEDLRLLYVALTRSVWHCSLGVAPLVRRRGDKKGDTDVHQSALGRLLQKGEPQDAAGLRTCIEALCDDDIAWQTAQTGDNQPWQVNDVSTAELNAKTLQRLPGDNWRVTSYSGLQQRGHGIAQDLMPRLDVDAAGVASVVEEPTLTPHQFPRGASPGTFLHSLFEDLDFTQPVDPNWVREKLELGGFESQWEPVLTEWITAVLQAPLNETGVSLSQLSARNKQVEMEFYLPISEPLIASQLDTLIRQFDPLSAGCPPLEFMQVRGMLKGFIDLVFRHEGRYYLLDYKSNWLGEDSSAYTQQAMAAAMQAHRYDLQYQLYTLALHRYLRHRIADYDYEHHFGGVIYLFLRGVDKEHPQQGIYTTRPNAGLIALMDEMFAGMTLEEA
Kind of experiment: E. coli RecBCD inhibitors, dose response, counter-screen for AddAB inhibitor project, absorbance, V66 E. coli, mutant T4 phage (AID 492957). Format: functional, cell-based, Escherichia coli str. K-12 substr. MG1655.

A further experiment deals with INS1. Kind of experiment: beta cell apoptosis inhibitors, cytokine rescue, dose response, luminescence, retest (AID 449756).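 Further: cell death triggered by IL-1 beta plus TNF-alpha plus IFN-gamma mixture; protective hits raise ATP signal compared with cytokine alone wells.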 The experiment is classed as functional, cell-based. The note with it: Rattus norvegicus.
Experiment [12] can be described thus: cytotoxicity toward DRD oncogenic fibroblasts, dose response, cell-based, non-viral oncogenic, luminescence (AID 1934). Format: functional. As to conditions: Homo sapiens.
A short description of experiment [13]: cells. The experiment is classed as functional, cell-based. The source holds these as a separate data set.
The target of another experiment is T3, Protein skinhead-1 (Caenorhabditis elegans, UniProt P34707).
T3 sequence (P34707 whole entry): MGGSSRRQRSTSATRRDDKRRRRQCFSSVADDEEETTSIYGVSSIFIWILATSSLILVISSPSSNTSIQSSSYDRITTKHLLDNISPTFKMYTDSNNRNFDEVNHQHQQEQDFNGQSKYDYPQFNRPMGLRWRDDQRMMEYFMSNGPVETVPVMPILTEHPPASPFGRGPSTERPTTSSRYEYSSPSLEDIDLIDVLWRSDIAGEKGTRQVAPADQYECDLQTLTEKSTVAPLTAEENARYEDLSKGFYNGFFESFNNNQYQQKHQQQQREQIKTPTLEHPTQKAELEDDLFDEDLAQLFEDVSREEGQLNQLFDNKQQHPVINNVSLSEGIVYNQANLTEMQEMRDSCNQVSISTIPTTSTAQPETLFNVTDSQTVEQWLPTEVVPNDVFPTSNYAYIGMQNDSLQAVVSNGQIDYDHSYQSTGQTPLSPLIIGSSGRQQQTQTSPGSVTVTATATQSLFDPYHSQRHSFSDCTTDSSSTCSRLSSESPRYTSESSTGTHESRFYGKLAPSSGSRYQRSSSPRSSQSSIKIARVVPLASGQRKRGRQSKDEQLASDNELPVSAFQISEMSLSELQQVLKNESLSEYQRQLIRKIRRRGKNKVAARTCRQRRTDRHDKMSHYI
The experiment is classed as functional.

Sequence of DNA dC->dU-editing enzyme APOBEC-3A (P31941 whole entry): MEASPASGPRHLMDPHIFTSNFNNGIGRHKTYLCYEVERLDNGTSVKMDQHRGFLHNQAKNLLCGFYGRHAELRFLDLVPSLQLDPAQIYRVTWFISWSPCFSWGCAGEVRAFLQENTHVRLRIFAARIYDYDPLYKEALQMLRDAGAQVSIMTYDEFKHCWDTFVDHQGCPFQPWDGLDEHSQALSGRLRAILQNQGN
Sequence of DNA dC->dU-editing enzyme APOBEC-3G (Q9HC16 whole entry): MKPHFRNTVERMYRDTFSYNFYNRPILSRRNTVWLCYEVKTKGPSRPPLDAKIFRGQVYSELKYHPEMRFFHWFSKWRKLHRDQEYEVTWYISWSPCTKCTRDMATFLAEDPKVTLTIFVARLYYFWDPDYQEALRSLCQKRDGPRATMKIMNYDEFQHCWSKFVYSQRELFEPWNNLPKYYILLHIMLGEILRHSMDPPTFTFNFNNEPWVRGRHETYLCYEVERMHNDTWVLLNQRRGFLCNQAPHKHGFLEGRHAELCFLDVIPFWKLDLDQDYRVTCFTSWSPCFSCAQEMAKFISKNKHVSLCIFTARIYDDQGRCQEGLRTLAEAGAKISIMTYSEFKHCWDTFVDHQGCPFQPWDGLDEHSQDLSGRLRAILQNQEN

`CC(c1ccccc1)C1OCC(C[N+]2(C)CCCCC2)O1` (stereo not drawn): the results for the IC50 in experiment [1], in [2] and in [3] were 2.75 µM (active), 2.81 µM (active) and 2.72 µM (active), respectively.

Turning to `CN(C)CCCN(C(=O)c1ccc2c(c1)OCCO2)c1nc2ccc(Cl)cc2s1`, the IC50 (usually the point on the concentration scale where inhibition reaches its midpoint) in the experiment on Vero [4] is > 25 µM (active). For the same molecule, the CC50 (in general, the concentration at which the toxic effect on the cells reaches its halfway point) with Vero [5] is > 25 µM (active).

As to `C/C(=N\Nc1ccc2nncn2n1)c1ccccn1`, the EC50 (as a rule, the concentration at which the effect is half-maximal) with BJ [6] is 0.912 µM (active); in the experiment with BJ [7], 16 µM (active); with BJ [8] it was 4.29 µM (active); in “cells [10]” it was 6.99 µM (active); in the experiment with BJ [11] it was 8.41 µM (inconclusive); in experiment [12], 4.95 µM (active). Further, in the experiment “cells [13]”, the EC50 is given as > 350 µM (not active). Besides, the figures for the IC50 (in experiment [9]; at Exodeoxyribonuclease V) were 114 µM (inactive) and 57.1 µM (inactive), respectively. Besides, the AC50 (as a rule, the concentration at which the activity in the assay is half-maximal) in the experiment with INS1 is 0.898 µM (active).

On to `Cn1cc(CN2CCCC(C(=O)Nc3ccc(-c4cccc(F)c4)cc3)C2)cn1` (stereo not drawn), for which the IC50 in the experiment with Vero [4] is 22.6 µM (active). In addition, the CC50 in the experiment on Vero [5] was 22.3 µM (active).

Regarding `COc1ccc(C(=O)/C=C/c2ccc(OC)c(CN3CCOCC3)c2)cc1`, the IC50 with Vero [4] is 9.3 µM (active); at Protein skinhead-1, 6.86 µM (active). Further, the CC50 in the experiment on Vero [5] was 22.6 µM (active).

Turning to `O=C(Cn1cnc2ccccc21)Nc1ccc2c(c1)OCCCO2`, the IC50 (in experiment [9]; on Exodeoxyribonuclease V) was > 119 µM (inactive) in each case.

In the case of `Cc1ccn2c(=O)nc(SCC(=O)NCc3ccccc3Cl)nc2c1`, the 50% inhibitory concentration (IC50) in experiment [1] is 8.34 µM (active).

Turning to `C/C(=N\NC1=NC(=O)C(CC(=O)O)S1)c1ccccn1` (stereo not drawn), the IC50 was > 118 µM (inactive) in experiment [9] and 73.3 µM (inactive) on Exodeoxyribonuclease V.

Consider `CN1CCN(CCCN2c3ccccc3Sc3ccc(S(=O)(=O)N(C)C)cc32)CC1`, for which the IC50 in the experiment on Vero [4] is > 25 µM (active). For the same molecule, the CC50 with Vero [5] is > 25 µM (active).

For `Cc1c(C(=O)O)cccc1-c1ccc(/C=N/n2cnnc2)o1`, the IC50 in experiment [1] is 6.52 µM (active).
